Assays:
Assay in all cases: cell viability (% survival relative to DMSO control); higher = less cytotoxic
Conditions in all cases: 72 h
[1] = tested on: myeloid leukemia patient primary cells Pat.10
Summary of the method: (§1)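 Thawed, Ficoll-purified mononuclear cells from AML or CML patients in RPMI 1640 with 10% FBS were seeded at 10,000 cells/well on 384-well plates pre-printed with 70 compounds at five tenfold concentrations, 1–10,000 nM, in duplicate, for 72 h. Viability was read by CellTiter-Glo and normalised to DMSO and 10 μM proteasome-inhibitor wells. Where given, area under the curve came from four-parameter log-logistic fits (drc, PharmacoGx R packages).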

[2] = tested on: myeloid leukemia patient primary cells Pat.11
Summary of the method: as §1

[3] = tested on: myeloid leukemia patient primary cells Pat.12
Summary of the method: as §1

[4] = tested on: myeloid leukemia patient primary cells Pat.14
Summary of the method: as §1

[5] = tested on: myeloid leukemia patient primary cells Pat.15
Summary of the method: as §1

[6] = tested on: myeloid leukemia patient primary cells Pat.1
Summary of the method: as §1

[7] = tested on: myeloid leukemia patient primary cells Pat.2
Summary of the method: as §1

[8] = tested on: myeloid leukemia patient primary cells Pat.4
Summary of the method: as §1

[9] = tested on: myeloid leukemia patient primary cells Pat.6
Summary of the method: as §1

HL-60 = tested on: HL-60
Method: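 8x8 drug-combination matrices (0-5000 nM; rosiglitazone and lestaurtinib 0-1000 nM) were run in HL-60 cells for 72 h with a CellTiter-Glo read-out. Survival is normalised to DMSO and 10 µM bortezomib and clipped at 100%. Bliss synergy was analysed in SynergyFinder.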

CCC(CC#N)OC(=O)N[C@@H](C)c1cccc(NC(=O)Nc2ccc(-c3cnco3)c(OC)c2)c1 (stereo in doubt) [AVN-944]
cell viability [%]
Conditions	[1]	[2]	[3]	[4]	[5]	[6]	[7]	[8]	[9]
1 nM	> 100	> 100	98.7	88.2	94.9	90.9	> 100	86	97.1
10 nM	66.9	99.4	> 100	97.5	> 100	85.7	98.9	90.7	90.8
100 nM	41.6	90.8	87.7	84.9	83.3	87.2	81.5	92.9	92.9
1000 nM	58.3	86.2	> 100	63.5	89.7	82.4	81.8	63	87.4
10000 nM	4.94	60.6	92.9	34.3	71.1	65.8	83.1	33.4	64

Nc1ccn([C@@H]2O[C@H](CO)[C@@H](O)C2(F)F)c(=O)n1 [Gemcitabine]
cell viability [%]
Conditions	[1]	[2]	[3]	[4]	[5]	[6]	[7]	[8]	[9]
1 nM	67.4	95.3	96.3	52.8	96.3	83.4	90.2	75.4	77.8
10 nM	32.6	91.6	95.9	44.5	80.8	92.9	95.4	93.4	84
100 nM	64.3	> 100	98.4	> 100	82.5	99.6	98.4	82.8	98.2
1000 nM	45.5	83.6	92.4	67.4	78	76.6	82.9	62.2	91.2
10000 nM	7.03	67.2	82.8	25.8	41.8	54.5	48.5	32.2	81.8

CN(C)CCNC(=O)c1cccn2c(=O)c3cc4ccccc4cc3nc12 [Bmh-21]
cell viability [%]
Conditions	[1]	[2]	[3]	[4]	[5]	[6]	[7]	[8]	[9]
1 nM	74.6	> 100	94.1	87.3	91.5	85.9	96.5	81.3	96.4
10 nM	87.5	97.6	91.9	95	99.6	91.9	98.5	89.6	> 100
100 nM	72.1	> 100	97.3	90.6	92.4	91.5	97.8	93.9	> 100
1000 nM	38.9	24.3	55.1	42.8	0.134	3.71	91.6	3.78	67.1
10000 nM	17.3	1.02	0.342	3.08	0.56	0.712	33.1	1.54	10.2

Oc1ncc(F)c(O)n1 [5-fluorouracil]
cell viability [%]
Conditions	[1]	[2]	[3]	[4]	[5]	[6]	[7]	[8]	[9]
1 nM	> 100	99.9	94.2	94.6	83.4	88.5	95.9	90.8	> 100
10 nM	78.1	97.2	95.4	87	91.5	93.1	94.9	88.4	96.6
100 nM	65	96.6	87.6	90.3	96.7	91	99.1	92.1	95.8
1000 nM	68.9	96.7	95.5	90.2	91	97	88.9	88.9	99.3
10000 nM	50.5	95.7	91.4	84.9	93.9	85.8	97.5	60.6	98.5

NS(=O)(=O)c1ccc(S(=O)(=O)Nc2cccc3c(Cl)c[nH]c23)cc1 [Indisulam]
cell viability [%]
Conditions	[1]	[2]	[3]	[4]	[5]	[6]	[7]	[8]	[9]
1 nM	55.5	93.9	89.5	75.2	90.2	94.5	> 100	91.4	99.9
10 nM	64.9	> 100	95.5	84.3	90.8	> 100	88.2	87.2	98.2
100 nM	97	> 100	89.6	85.7	75.9	94.1	95.8	86	> 100
1000 nM	81.4	86.3	96.9	62.6	79.2	65.2	96.9	28	81.5
10000 nM	> 100	72.1	85.2	66.6	44.1	48.8	67.1	9.12	63.2

O=C(Cc1cccc(OC(F)(F)F)c1)Nc1ccc(CCCCc2nnc(NC(=O)Cc3ccccn3)s2)nn1 [CB-839]
cell viability [%]
Conditions	[1]	[2]	[3]	[4]	[5]	[6]	[7]	[8]	[9]
1 nM	52.5	94.1	86.8	75.6	92.4	84.7	86.8	92	91.7
10 nM	47.9	88.4	89.6	69.4	89.2	81.3	91.3	91.5	94.9
100 nM	24.4	85.1	88	39.7	73.2	46.7	78.1	57.4	79.1
1000 nM	44.8	74.3	80.1	41.4	40.2	56.4	87	61	84.9
10000 nM	68.9	90.7	99.4	78.6	36.6	59.1	88.3	75.4	90.9

C=C1NC(=O)c2cc(CN(C)c3ccc(C(=O)N[C@@H](CCC(=O)O)C(=O)O)s3)ccc2N1 [Raltitrexed]
cell viability [%]
Conditions	[1]	[2]	[3]	[4]	[5]	[6]	[7]	[8]	[9]
1 nM	54.5	93.9	86.9	71	81.4	79.1	95.5	80.7	90.3
10 nM	74.6	97.3	96.9	94.5	90	96.9	95	> 100	98.1
100 nM	96.5	99.3	> 100	> 100	89.2	99.9	> 100	94.1	> 100
1000 nM	> 100	97.4	95.9	90.2	95.1	93.7	99.7	97.6	> 100
10000 nM	89.9	99.2	98.6	92.1	> 100	> 100	98.5	> 100	> 100

Cc1nnc(-c2ccc(N3CCC(Oc4ccccc4C(F)(F)F)CC3)nn2)s1 [MF-438]
cell viability [%]
Conditions	[1]	[2]	[3]	[4]	[5]	[6]	[7]	[8]	[9]
1 nM	80.2	94	99.4	85	97.4	78.8	> 100	83.7	95.4
10 nM	89.2	96.6	97.1	> 100	89.5	85.8	99.8	98.5	98.9
100 nM	96.8	> 100	> 100	87.8	98.7	97.1	95.4	87.9	99.5
1000 nM	87.5	> 100	87.5	83.5	86.9	90.5	87.6	85.8	83
10000 nM	> 100	90.6	90.5	92.2	69.8	82.8	89.7	68.8	85.3

Fc1ccc(CNc2ncnc3ccc(F)cc23)cc1 [Spautin 1]
cell viability [%]
Conditions	[1]	[2]	[3]	[4]	[5]	[6]	[7]	[8]	[9]
1 nM	73	> 100	97.3	87.2	96.5	97	97.1	77.2	> 100
10 nM	15.3	96.2	87.3	56.5	90.9	84.4	88.7	87.3	86.8
100 nM	96.8	97.9	> 100	90.5	91.5	88.1	> 100	96.2	96.6
1000 nM	78.5	92.2	> 100	60.7	79.4	81.7	87.3	70.4	87.9
10000 nM	47.9	84.7	72.6	31.2	25.9	46.4	77.2	50.5	42.2

CN(C)CCNC(=O)c1cccn2c(=O)c3cc4ccccc4cc3nc12 [Bmh-21] + O=C(O)CC[N+](=O)[O-] [3-nitropropionic acid]
cell viability [%], HL-60
Conditions	drug1 concentration 5 nM	drug1 concentration 10 nM	drug1 concentration 50 nM	drug1 concentration 100 nM	drug1 concentration 500 nM	drug1 concentration 1000 nM	drug1 concentration 5000 nM
drug2 concentration 5 nM	76.1	> 100	> 100	> 100	34.7	29.4	11.4
drug2 concentration 10 nM	85.5	> 100	> 100	89.3	54.7	48.5	34
drug2 concentration 50 nM	90.2	83.1	> 100	> 100	57	52.6	7.17
drug2 concentration 100 nM	> 100	> 100	> 100	> 100	45.9	28.8	4.7
drug2 concentration 500 nM	> 100	> 100	81.7	> 100	53.9	70	13.8
drug2 concentration 1000 nM	> 100	62.9	> 100	> 100	77.4	1.67	50.4
drug2 concentration 5000 nM	> 100	> 100	68.7	> 100	22	24.2	0

CCCCCCCCCCCCC/C=C/[C@@H](O)[C@H](CO)N(C)C [N,N-Dimethylsphingosine]
cell viability [%]
Conditions	[1]	[2]	[3]	[4]	[5]	[6]	[7]	[8]	[9]
1 nM	79.3	94.6	100	97.9	93.8	> 100	91.4	98.5	> 100
10 nM	74.6	> 100	84.6	85	95.6	92.6	96.1	80.5	99.3
100 nM	39.9	94.1	94.2	57.8	78.6	79.6	88.2	78.5	76.5
1000 nM	22.9	93.3	84.6	47.9	85.5	74.3	92.4	74	83.7
10000 nM	< 0	19.4	42.2	2.81	10.4	56.2	3.22	5.51	0.544

Source: the supplement of paper PMC8671470
